Reference: US7803558B2, “Modulation of aqueous humor outflow by targeting vascular-endothelial-cadherin in Schlemm's canal cells” (The Arizona Board of Regents on behalf of the University of …, priority 2003, dated 2010)
Like-named read-outs stand apart in the source and are kept apart here.

Columns and labels:
[1] = system: human Schlemm's canal (SC) cell monolayers
Method: (§1) SC Cells: Human cadaveric eye tissue was obtained from Donor Network of Arizona, San Diego Lions Eye Bank or North Carolina Lions Eye Bank within 48 hours of death for whole eyes stored in moist chambers, and within 96 hours for non-transplantable corneal anterior segments stored in Optisol (Chiron Vision, Clairmont, Calif.). Human SC cells were isolated from the cadaveric eye tissue using gelatin-coated cannulas, as described previously (Stamer W D, et al Invest Opthalmol Vis Sci 1998; 39:1804-1812) or by differential dissection (O'Brien E, Invest. Opthalmol. Vis. Sci. 2000; 41:3842-3849). Cells used in perfusion studies were isolated by both methods while only cells isolated by differential dissection were used in morphology experiments. Cells were grown and maintained in Dulbecco's Modified Eagle Medium (DMEM) and maintained in humidified air containing 5% CO2 at 37° C., as described previously (Stamer W D, et al Invest Opthalmol Vis Sci 1998; 39:1804-1812). Human SC cells were seeded at 100,000 cells/cm^2onto 1-cm^2 Snapwell Filters (Snapwell; Costar, Acton, Mass.) with 0.4-μm pore diameter in 10% FBS/DMEM. Primary cultures of eight SC cell strains were isolated from eight different cadaveric eyes without a history of glaucoma and used in the present study (SC3, SC6, SC10, SC11, SC41, SC42, SC 57 and SC68).
(§2) Transendothelial electrical resistance (TEER) of cell monolayers cultured on Snapwell filters was measured using a TEER measurement chamber (ENDOHM-24; World Precision Instruments) in conjunction with an epithelial voltohmmeter (EVOM; World Precision Instruments). […] Pressure in the upstream compartment was generated by an elevated reservoir of HEPES-DMEM, with pressure recorded using a pressure transducer (AH 60-3002; Harvard Apparatus, Holliston, Mass.), while the downstream compartment was vented to atmospheric pressure. The rate of fluid flow through the chamber was calculated from the weight change per unit time of the reservoir measured using an isometric transducer (AH 60-2994; Harvard Apparatus). Pressure and weight data were recorded simultaneously at 30 times/sec onto hard drive of computer using a Data Acquisition System (MP100WSW; Biopac Systems, Inc., Santa Barbara, Calif.).
(§3) Once stable TEER was achieved, a valve between the reservoir and chamber was opened to expose the upstream chamber to pressure. TEER, flow, and pressure measurements were recorded for 20 minutes to establish baseline values. […] The medium in the upstream chamber was then exchanged with […] HEPES-DMEM at a rate of 2.5 ml/min, and a second 10-minute baseline period was measured.

[2] = system: MDCK cell monolayers
Method: (§4) MDCK Cells: Madin-Darby Canine Kidney cells (MDCK), were used as a control to characterize perfusion system and for comparisons to SC monolayers. […] MDCK cells thus served as a positive control for comparisons with SC cells in subsequent experiments. MDCK Cells used in the present study were a gift from Dr. Ronald Lynch (University of Arizona) and were used between passages 14-16. Cells were grown in DMEM and maintained in humidified air containing 5% CO2 at 37° C. for at least three weeks after reaching confluence before experimentation.
as §2, with “Instruments). Following three rinses with prewarmed 20 mM HEPES (Sigma, St. Louis, Mo.) buffered DMEM (serum-free, pH 7.4; HEPES-DMEM), filters were carefully transferred to the TEER measurement chamber filled with HEPES-DMEM.” for “Instruments).”
as §3

[3] = system: MDCK cell monolayers (cell borders); settings: by 60 seconds after Na2EDTA, data not shown
Method: as §4

[4] = system: human Schlemm's canal (SC) cell monolayers; remark: listed apart in the source
Method: as §1
as §2, with “Instruments). Following three rinses with prewarmed 20 mM HEPES (Sigma, St. Louis, Mo.) buffered DMEM (serum-free, pH 7.4; HEPES-DMEM), filters were carefully transferred to the TEER measurement chamber filled with HEPES-DMEM.” for “Instruments).”
Once stable TEER was achieved, a valve between the reservoir and chamber was opened to expose the upstream chamber to pressure. TEER, flow, and pressure measurements were recorded for 20 minutes to establish baseline values.

[5] = system: SC cell monolayers (cell margins)
Method: as §1

[6] = system: MDCK cell monolayers; remark: listed apart in the source
Method: as §4
Transendothelial electrical resistance (TEER) of cell monolayers cultured on Snapwell filters was measured using a TEER measurement chamber (ENDOHM-24; World Precision Instruments) in conjunction with an epithelial voltohmmeter (EVOM; World Precision Instruments). Following three rinses with prewarmed 20 mM HEPES (Sigma, St. Louis, Mo.) buffered DMEM (serum-free, pH 7.4; HEPES-DMEM), filters were carefully transferred to the TEER measurement chamber filled with HEPES-DMEM. […] The Snapwell filters containing the cell monolayers were then carefully placed into an Ussing-type chamber (Ussing system CHM5; World Precision Instruments, Sarasota, Fla.) filled with HEPES-DMEM and maintained at 37° C. in an air incubator for 15 minutes prior to pressure application. Filters were oriented such that the apical surface of cell monolayers faced the upstream chamber. Flow through cell monolayers was a function of the pressure gradient between the upstream and downstream compartments of the chamber. Pressure in the upstream compartment was generated by an elevated reservoir of HEPES-DMEM, with pressure recorded using a pressure transducer (AH 60-3002; Harvard Apparatus, Holliston, Mass.), while the downstream compartment was vented to atmospheric pressure. The rate of fluid flow through the chamber was calculated from the weight change per unit time of the reservoir measured using an isometric transducer (AH 60-2994; Harvard Apparatus). Pressure and weight data were recorded simultaneously at 30 times/sec onto hard drive of computer using a Data Acquisition System (MP100WSW; Biopac Systems, Inc., Santa Barbara, Calif.).
as §3
Hydraulic conductivity was measured continuously and TEER measurements were then taken every five minutes for the duration of the trial.

With `O=C([O-])CN(CCN(CC(=O)[O-])CC(=O)O)CC(=O)O.[Na+].[Na+]` [Na2EDTA] the “impact of lower concentrations on HC or TEER” value ([1]; SC monolayers, 0.5-2 mM Na2EDTA, n=6) was “not to impact significantly”, the “minimum Na2EDTA needed to effect both hydraulic conductivity and TEER” value ([1]; SC monolayers, titration experiments, time course of the experiments, n=13-15, data not shown) was 5 mM and the “percent change in HC relative to baseline following Na2EDTA treatment versus percent change between the two baseline measurements” value ([1]; SC, paired t-test, p<0.05) was “significantly greater”. The “percent change in HC relative to baseline following post-Na2EDTA rinse versus percent change between the two baseline measurements” value ([1]; SC, paired t-test, p<0.05) was “significantly greater”, the “average rate of TEER decrease after Na2EDTA treatment” value ([2]; 25 mM Na2EDTA for 5 min, 14-16 mm Hg, n=4, +/- SEM) was 1.9 (+/−0.12 SEM) Ωcm^2/min and the “change in TEER relative to baseline in presence of pressure (paired t-test)” value ([2]; 25 mM Na2EDTA, p=0.06) was “approached significance”. The “average rate of change of TEER following rinse with normal medium” value ([2]; after 25 mM Na2EDTA for 5 min) was “not significantly different from pre-Na2EDTA rates”, the “effect on cell borders” value [3] was “retracted” and the “time required for functional return after washout of Na2EDTA” value ([4]; SC monolayers, functionally via TEER measurements) was 2 h. For the same compound, the “change in TEER decrease relative to 30-minute baseline in presence of pressure (paired t-test)” value ([4]; SC, 5 mM Na2EDTA) was “no significant change”, the “average rate of TEER decrease after Na2EDTA treatment” value ([4]; SC, 5 mM Na2EDTA for 5 min, 4-6 mm Hg, n=5, +/- SEM) was 0.34 (+/−0.26 SEM) Ωcm^2/min and the “average rate of change of TEER following rinse with normal medium” value ([4]; SC, after 5 mM Na2EDTA for 5 min) was “not significantly different from pre-Na2EDTA rates”. For the same compound, the “time required for cell margins to return to original position / cell-cell contacts to return visually after replacement of normal medium” value ([5]; 10 mM Na2EDTA for 5 minutes, then normal medium, data not shown) was “about 30 minutes”, the “retraction of cell margins from each other” value ([5]; 60 seconds after addition of 10 mM Na2EDTA) was “about 2 μm” and the “retraction of cell margins from each other” value ([5]; 90 seconds after addition of 10 mM Na2EDTA) was “about 3 μm”. The “recovery of TEER and hydraulic conductivity shortly after washout of Na2EDTA” value ([6]; MDCK cell monolayers, perfusion experiments) was “partial recovery”, the “minimum Na2EDTA required to effect both hydraulic conductivity and TEER” value ([6]; MDCK cell monolayers, titration experiments, time course of the experiments, n=13-15, data not shown) was 25 mM and the “percent change in HC relative to baseline following post-Na2EDTA rinse versus percent change between the two baseline measurements” value ([6]; MDCK, paired t-test) was “not”. The “percent change in HC relative to baseline following Na2EDTA treatment versus percent change between the two baseline measurements” value ([6]; MDCK, paired t-test, p<0.05) was “significantly greater”.
